Drawing on PubChem BioAssay (NCI), this text covers TGI and GI50 for 14 compounds.

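Following 48 hours of exposure in 96-well plates, responses at five concentrations were used to interpolate endpoints linearly. GI50 marks 50% less growth. TGI: concentration producing complete growth inhibition.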

Holding throughout (test): growth of human tumour cells (NCI), 48 h
Experiment [1] concerns MCF7 breast.
Experiment [2] deals with HCC-2998 colon.
For experiment [3], the system named is SK-OV-3 ovarian.
Experiment [4] deals with ACHN renal.
Experiment [5] deals with COLO 205 colon.
The subject of experiment [6] is NCI-H23 lung.
For experiment [7], the system named is M14 melanoma.
For experiment [8], the system named is BT-549 breast.
The test system of experiment [9] is SN12C renal.
The test system of experiment [10] is HOP-92 NSCLC.

In the case of `COC(=O)C1(N2CCOCC2)CCC([C@@H](c2ccccc2)C(C)[N+](=O)[O-])C1` (some centres undefined), the TGI in experiment [1] was 54.5 µM; in [2], more than 100 µM; in experiment [3], more than 100 µM; in [4], more than 100 µM; in experiment [5] it was more than 100 µM; in [6], more than 100 µM. The TGI in [7] is more than 100 µM; in experiment [8], 60.8 µM; in experiment [9] it was more than 100 µM.

Consider `COc1ccc(N2CCN(c3nc(-c4ccccn4)nc4sc5c(c34)CCCCCC5)CC2)cc1`, for which the GI50 in experiment [1] was 3.15 µM; in [2], 10.3 µM; in experiment [3] it was more than 100 µM; in experiment [4], 5.09 µM; in experiment [5], 5.61 µM; in [6], 16.9 µM. The GI50 in [10] was 3.24 µM; in experiment [7], 5.4 µM; in experiment [8] it was 6.92 µM; in experiment [9] it was 5.99 µM. The TGI in experiment [1], in experiment [2], in experiment [3], in experiment [4], in [5] and in experiment [6] was more than 100 µM in each case. For the same compound, the TGI in [10], in experiment [7], in [8] and in experiment [9] was more than 100 µM throughout.

On to `CS(=O)(=O)Nc1cc(-c2ccc3ncnc(Nc4ccc(OCc5ccccn5)c(Cl)c4)c3c2)cnc1Cl`, for which the GI50 in experiment [1] is 0.185 µM; in [2] it was 1.13 µM; in [3], 0.21 µM; in experiment [4], 1.02 µM; in experiment [5], 0.316 µM; in experiment [6], 0.381 µM. Moreover, the GI50 in experiment [7] was 0.486 µM; in experiment [8], 0.14 µM; in experiment [9], 0.35 µM. In addition, the TGI in experiment [1] is more than 100 µM; in experiment [2], 3.31 µM; in [3] it was 1.16 µM; in experiment [4] it was more than 100 µM; in experiment [5], 1.85 µM; in [6], more than 100 µM. For the same compound, the TGI was 1.23 µM in experiment [8] and more than 100 µM in experiment [9].

Turning to `COc1ccc(CC2OC3(CCCCC3)CC3CCCCN32)cc1` (centres undefined), the TGI in experiment [1], in experiment [2], in experiment [3], in experiment [4], in experiment [5] and in [6] was more than 100 µM in each case. Besides, the TGI in [10], in experiment [7], in [8] and in [9] was more than 100 µM each time.

For `COc1ccc(COc2ccc(Cc3cnc(N)nc3N)cc2OC)cc1`, the GI50 in [1] is 11.7 µM; in experiment [2], more than 25 µM; in [3], more than 25 µM; in experiment [4], more than 25 µM; in experiment [5], 4.27 µM; in experiment [6], more than 17.1 µM. Further, the GI50 in experiment [10] was 1.29 µM; in experiment [7], more than 25 µM; in experiment [8], 12.1 µM; in [9] it was more than 25 µM. Besides, the TGI was more than 25 µM in experiment [1]; more than 25 µM in experiment [2]; more than 25 µM in [3]; more than 25 µM in experiment [4]; 8.15 µM in experiment [5]; more than 25 µM in [6]. The TGI in experiment [10] was more than 21 µM; in experiment [7] it was more than 25 µM; in experiment [8], more than 25 µM; in [9] it was more than 25 µM.

For the compound `COc1cc2cc(C(=O)Nc3ccccc3)c(N)nc2cc1OC`, the GI50 in [1] was 48.8 µM; in experiment [2] it was 94.4 µM; in [3], more than 100 µM; in experiment [4], 39.4 µM; in experiment [5], 34 µM; in [6], 73.9 µM. Moreover, the GI50 is 8.29 µM in experiment [10], 33.1 µM in experiment [7], 25.1 µM in experiment [8] and 53.8 µM in experiment [9]. In addition, the TGI in experiment [1], in experiment [2], in [3], in experiment [4], in [5] and in experiment [6] was more than 100 µM in each case. The TGI is 90.1 µM in experiment [10], more than 100 µM in experiment [7], more than 100 µM in experiment [8] and more than 100 µM in experiment [9].

`O=C(Nc1c(Cl)cccc1Cl)Oc1cccc2cccnc12`: the GI50 in [1] was 2.99 µM; in experiment [2], 5.82 µM; in experiment [3], 4.62 µM; in [4] it was 3.87 µM; in experiment [5], 35.2 µM; in experiment [6], 4.07 µM. Also, the values for the GI50 in [7], in experiment [8] and in experiment [9] were 4.03 µM, 8.85 µM and 4.61 µM, respectively. For the same compound, the TGI in experiment [1] was more than 100 µM; in experiment [2], 24.6 µM; in experiment [3] it was 39.4 µM; in experiment [4], more than 100 µM; in experiment [5] it was more than 100 µM; in experiment [6], 45.5 µM. Also, the TGI is 20.2 µM in experiment [7], 90 µM in experiment [8] and more than 100 µM in experiment [9].

For the compound `CC#CC#C/C=C1/C=CC2(CCCCO2)O1` (centres undefined), the TGI in [1], in experiment [2], in [3], in experiment [5], in [6] and in experiment [10] was more than 100 µM in each case. The TGI in experiment [7], in [8] and in experiment [9] was more than 100 µM in each case.

For `Nc1[nH]c(=S)[nH]c(=O)c1N=Nc1c(Br)cc(S(N)(=O)=O)cc1Br`, the TGI in experiment [1], in experiment [3], in experiment [4], in experiment [5], in experiment [6] and in experiment [10] was more than 100 µM throughout. Besides, the TGI in [7], in [8] and in experiment [9] was more than 100 µM each time.

As to `O=C(Nc1cccc(Cl)c1)Nc1cc(C(F)(F)F)ccc1Cl`, the GI50 was 3.13 µM in experiment [1]; 2.53 µM in experiment [2]; 3.54 µM in experiment [3]; 2.54 µM in experiment [4]; 2.09 µM in experiment [5]; 2.44 µM in [6]. Further, the results for the GI50 in [7], in [8] and in [9] were 2.97 µM, 2.81 µM and 3.01 µM, respectively. Further, the TGI in experiment [1] is 18.1 µM; in experiment [2], 5.88 µM; in experiment [3], 16.5 µM; in experiment [4], 7.16 µM; in experiment [5], 3.68 µM; in experiment [6] it was 6.59 µM. The TGI in experiment [7] stood at 9.68 µM; in [8], 10.1 µM; in experiment [9] it was 11.5 µM.

Take `Cc1c(-c2c(F)cc(C(N)=O)c3[nH]c4c(c23)CC[C@H](C(C)(C)O)C4)cccc1-n1c(=O)c2cccc(F)c2n(C)c1=O`: the GI50 is 1.04 µM in [1]; 2.81 µM in experiment [2]; 6.35 µM in [3]; 2.8 µM in experiment [4]; 2.79 µM in [6]; 1.01 µM in experiment [10]. For the same compound, the GI50 was 3.69 µM in [7], 3.93 µM in [8] and 3.9 µM in [9]. For the same compound, the TGI was more than 100 µM in [1]; 51.5 µM in experiment [2]; more than 100 µM in experiment [3]; more than 100 µM in experiment [4]; more than 100 µM in experiment [6]; 6.94 µM in experiment [10]. Also, the TGI in experiment [7] was 66.1 µM; in experiment [8], 63 µM; in experiment [9], more than 100 µM.

Regarding `NC(=O)C1CCCN1Cc1ccc2c(c1)OCO2` (centres undefined), the TGI in experiment [1], in [3], in experiment [4], in [5], in experiment [6] and in [10] was more than 100 µM throughout. Moreover, the TGI in [7], in [8] and in experiment [9] was more than 100 µM each time.

With `Fc1ccc(Nc2ccnc(N3CCN(c4ccnc5cc(Cl)ccc45)CC3)n2)cc1`, the GI50 in experiment [1] was 2.36 µM; in experiment [2], 3.4 µM; in [3], 5.02 µM; in [4] it was 2.5 µM; in [7] it was 1.89 µM; in experiment [8] it was 2.95 µM. In addition, the GI50 in experiment [9] is 2.57 µM. Moreover, the TGI in experiment [1] was 8.26 µM; in [2], 13.7 µM; in experiment [3], more than 100 µM; in experiment [4], more than 100 µM; in [7], 4.25 µM; in experiment [8], 8.57 µM. In [9], this compound yielded a TGI of more than 100 µM.

Regarding `CC(C)Cc1cc(-c2cccn2C)c(C#N)c(=O)[nH]1`, the GI50 in [1], in [2], in experiment [3], in experiment [4], in [5] and in experiment [6] was more than 100 µM each time. Also, the GI50 in experiment [10], in experiment [8] and in [9] was more than 100 µM throughout. The TGI in [1], in experiment [2], in experiment [3], in experiment [4], in experiment [5] and in experiment [6] was more than 100 µM throughout. Besides, the TGI in [10], in experiment [8] and in experiment [9] was more than 100 µM in each case.
